According to patent US20230150974A1 (Foghorn Therapeutics Inc., priority 2020, published 2023):

Assays:
HiBiT-BRM = target: T1, HiBiT-BRM (Homo sapiens, UniProt P51531); experiment: HiBiT-BRM cell-based degradation assay (Nano-Glo HiBiT Lytic Detection); conditions: HeLa cells expressing HiBiT-BRM, 24 h; for DC50: read-out: BRM HiBit Degradation IC50
T1 construct: expressed in transfected cells
Summary of the method: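 Luminescence from HiBiT–LgBiT complementation in lysates of a stable HiBiT-BRM HeLa line measured after 24 h compound exposure. Degradation expressed as percent relative to DMSO-treated cells and cells given 2 μM of a known BRM/BRG1 degrader.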

HiBit-BRG1 = target: T2, HiBit-BRG1 (Homo sapiens, UniProt P51532); experiment: HiBit-BRG1 cell-based degradation assay (Nano-Glo HiBiT Lytic Detection); conditions: HeLa cells expressing HiBit-BRG1 and LgBit, 24 h; for DC50: read-out: BRG1 HiBit Degradation IC50; for Dmax: read-out: BRG1 HiBit Degradation Maximum (%)
T2 construct: expressed in transfected cells
T2 sequence (P51532 whole entry): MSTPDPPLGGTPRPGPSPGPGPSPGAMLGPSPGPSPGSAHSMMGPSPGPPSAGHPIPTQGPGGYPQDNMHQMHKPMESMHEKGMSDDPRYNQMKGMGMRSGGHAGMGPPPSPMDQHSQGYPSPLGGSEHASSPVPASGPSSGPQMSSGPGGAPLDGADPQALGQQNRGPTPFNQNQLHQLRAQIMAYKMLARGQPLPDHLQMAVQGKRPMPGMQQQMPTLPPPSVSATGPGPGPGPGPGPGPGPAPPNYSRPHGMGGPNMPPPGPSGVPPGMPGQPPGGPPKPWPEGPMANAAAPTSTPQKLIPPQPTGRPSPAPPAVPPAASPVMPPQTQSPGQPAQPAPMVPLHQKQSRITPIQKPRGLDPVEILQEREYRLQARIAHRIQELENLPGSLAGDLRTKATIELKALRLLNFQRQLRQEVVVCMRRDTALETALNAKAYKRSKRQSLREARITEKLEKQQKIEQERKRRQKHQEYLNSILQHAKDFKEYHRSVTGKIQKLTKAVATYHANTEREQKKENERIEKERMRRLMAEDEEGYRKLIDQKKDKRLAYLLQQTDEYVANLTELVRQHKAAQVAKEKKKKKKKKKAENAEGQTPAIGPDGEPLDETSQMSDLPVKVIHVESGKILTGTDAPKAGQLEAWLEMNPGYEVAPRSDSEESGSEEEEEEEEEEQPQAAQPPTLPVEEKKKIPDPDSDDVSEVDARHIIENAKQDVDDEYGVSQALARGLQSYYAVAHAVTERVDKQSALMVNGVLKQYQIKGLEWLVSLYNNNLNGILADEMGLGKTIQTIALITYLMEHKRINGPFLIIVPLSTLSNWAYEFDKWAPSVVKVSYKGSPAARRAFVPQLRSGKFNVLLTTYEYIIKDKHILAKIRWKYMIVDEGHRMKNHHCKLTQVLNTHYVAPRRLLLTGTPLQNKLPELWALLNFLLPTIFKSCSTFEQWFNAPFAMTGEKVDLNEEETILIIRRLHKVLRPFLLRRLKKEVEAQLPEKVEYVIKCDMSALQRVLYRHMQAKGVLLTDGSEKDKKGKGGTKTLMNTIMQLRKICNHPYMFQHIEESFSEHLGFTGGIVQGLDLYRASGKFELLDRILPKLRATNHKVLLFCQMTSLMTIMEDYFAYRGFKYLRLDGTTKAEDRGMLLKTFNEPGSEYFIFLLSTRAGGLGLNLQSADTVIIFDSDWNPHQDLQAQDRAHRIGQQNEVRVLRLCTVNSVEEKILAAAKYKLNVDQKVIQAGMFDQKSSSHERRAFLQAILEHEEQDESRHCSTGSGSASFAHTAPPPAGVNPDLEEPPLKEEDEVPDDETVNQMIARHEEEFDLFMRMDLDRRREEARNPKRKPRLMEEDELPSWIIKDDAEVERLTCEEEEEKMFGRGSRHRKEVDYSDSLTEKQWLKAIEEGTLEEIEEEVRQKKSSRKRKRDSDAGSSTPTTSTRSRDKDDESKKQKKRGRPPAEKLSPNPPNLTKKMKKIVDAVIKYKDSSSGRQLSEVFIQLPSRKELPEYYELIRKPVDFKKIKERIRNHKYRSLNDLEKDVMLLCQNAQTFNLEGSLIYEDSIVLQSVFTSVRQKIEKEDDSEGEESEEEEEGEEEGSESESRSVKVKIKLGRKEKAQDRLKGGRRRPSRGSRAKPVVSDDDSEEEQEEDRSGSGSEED
Summary of the method: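 Luminescence from Nano-Glo HiBiT lytic detection, read after 24 h compound exposure, scored degradation in a stable HeLa HiBiT-BRG1/LgBit line seeded at 5000 cells/well. DMSO wells defined 0% and 2 μM known BRM/BRG1 degrader wells defined full degradation.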

T1 sequence (P51531 whole entry): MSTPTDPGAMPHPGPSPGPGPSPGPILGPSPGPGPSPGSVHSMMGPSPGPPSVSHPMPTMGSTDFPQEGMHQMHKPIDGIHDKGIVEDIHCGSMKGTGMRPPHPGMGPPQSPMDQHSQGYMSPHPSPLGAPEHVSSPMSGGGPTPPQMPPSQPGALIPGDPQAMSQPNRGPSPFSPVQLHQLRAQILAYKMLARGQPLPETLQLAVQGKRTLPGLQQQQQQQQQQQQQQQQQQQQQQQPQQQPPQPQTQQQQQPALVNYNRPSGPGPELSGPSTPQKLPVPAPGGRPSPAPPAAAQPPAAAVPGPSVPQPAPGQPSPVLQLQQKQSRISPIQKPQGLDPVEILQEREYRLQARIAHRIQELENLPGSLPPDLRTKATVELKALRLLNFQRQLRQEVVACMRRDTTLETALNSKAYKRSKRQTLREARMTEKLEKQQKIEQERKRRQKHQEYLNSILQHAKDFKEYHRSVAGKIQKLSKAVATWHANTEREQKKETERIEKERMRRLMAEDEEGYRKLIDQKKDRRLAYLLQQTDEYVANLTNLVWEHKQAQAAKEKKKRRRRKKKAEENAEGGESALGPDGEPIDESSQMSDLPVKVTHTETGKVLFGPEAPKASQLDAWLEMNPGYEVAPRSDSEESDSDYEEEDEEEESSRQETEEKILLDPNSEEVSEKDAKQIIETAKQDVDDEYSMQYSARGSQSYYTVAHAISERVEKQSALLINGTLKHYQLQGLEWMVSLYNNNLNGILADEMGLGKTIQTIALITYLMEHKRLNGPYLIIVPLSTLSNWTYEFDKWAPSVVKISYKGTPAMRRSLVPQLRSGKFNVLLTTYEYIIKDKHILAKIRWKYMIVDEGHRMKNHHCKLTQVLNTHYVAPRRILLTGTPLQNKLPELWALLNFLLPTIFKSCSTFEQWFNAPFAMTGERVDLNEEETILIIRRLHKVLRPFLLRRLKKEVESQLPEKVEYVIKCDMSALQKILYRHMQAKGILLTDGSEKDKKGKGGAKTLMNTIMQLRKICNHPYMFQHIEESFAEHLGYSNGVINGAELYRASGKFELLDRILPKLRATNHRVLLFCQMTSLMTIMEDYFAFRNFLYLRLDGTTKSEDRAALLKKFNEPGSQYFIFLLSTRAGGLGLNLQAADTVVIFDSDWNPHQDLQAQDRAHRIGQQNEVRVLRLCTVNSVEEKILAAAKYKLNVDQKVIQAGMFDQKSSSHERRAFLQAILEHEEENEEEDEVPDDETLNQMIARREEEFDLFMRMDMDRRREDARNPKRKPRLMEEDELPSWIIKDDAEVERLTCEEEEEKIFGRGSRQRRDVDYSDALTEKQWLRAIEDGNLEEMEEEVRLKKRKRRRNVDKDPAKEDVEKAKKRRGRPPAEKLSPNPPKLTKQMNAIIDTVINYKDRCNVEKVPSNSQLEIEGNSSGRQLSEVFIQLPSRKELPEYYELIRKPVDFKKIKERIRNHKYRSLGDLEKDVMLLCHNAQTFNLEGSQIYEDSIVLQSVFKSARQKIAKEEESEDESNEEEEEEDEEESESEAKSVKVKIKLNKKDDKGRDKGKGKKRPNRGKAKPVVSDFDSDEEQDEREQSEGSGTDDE

| DC50 (HiBiT-BRM) [nM] | DC50 (HiBit-BRG1) [nM] | Dmax (HiBit-BRG1) [%] | SMILES | BRM HiBit Degradation Maximum (%) (HiBiT-BRM) |
| --- | --- | --- | --- | --- |
| > 10 | > 1000 | < 50 | Cc1ncsc1-c1ccc([C@H](C)NC(=O)[C@@H]2C[C@@H](O)CN2C(=O)[C@@H](NC(=O)CCCCCCCCCCCCC(=O)NCc2ccc(CCOc3cc(-c4ccccc4O)nnc3N)cc2)C(C)(C)C)cc1 [Compound 248, N1-(4-(2-((3-amino-6-(2-hydroxyphenyl)pyridazin-4-yl)oxy)ethyl)benzyl)-N14-((S)-1-((2S,4R)-4-hydroxy-2-(((S)-1-(4-(4-methylthiazol-5-yl)phenyl)ethyl)carbamoyl)pyrrolidin-1-yl)-3,3-dimethyl-1-oxobutan-2-yl)tetradecanediamide] | A (“A” indicates maximum degradation ≥75%) |
| > 1000 | > 1000 | < 50 | Cc1ncsc1-c1ccc([C@H](C)NC(=O)[C@@H]2C[C@@H](O)CN2C(=O)[C@@H](NC(=O)CCN2CCC(OC3CCN(CCC(=O)NCc4ccc(CCOc5cc(-c6ccccc6O)nnc5N)cc4)CC3)CC2)C(C)(C)C)cc1 [Compound 249, (2S,4R)-1-((S)-2-(3-(4-((1-(3-((4-(2-((3-amino-6-(2-hydroxyphenyl)pyridazin-4-yl)oxy)ethyl)benzyl)amino)-3-oxopropyl)piperidin-4-yl)oxy)piperidin-1-yl)propanamido)-3,3-dimethylbutanoyl)-4-hydroxy-N-((S)-1-(4-(4-methylthiazol-5-yl)phenyl)ethyl)pyrrolidine-2-carboxamide] | A (“A” indicates maximum degradation ≥75%) |
| > 1000 | > 1000 | < 50 | Cc1ncsc1-c1ccc([C@H](C)NC(=O)[C@@H]2C[C@@H](O)CN2C(=O)[C@@H](NC(=O)CCN2CCC3(CCN(CCC(=O)NCc4ccc(CCOc5cc(-c6ccccc6O)nnc5N)cc4)CC3)CC2)C(C)(C)C)cc1 [Compound 250, (2S,4R)-1-((S)-2-(3-(9-(3-((4-(2-((3-amino-6-(2-hydroxyphenyl)pyridazin-4-yl)oxy)ethyl)benzyl)amino)-3-oxopropyl)-3,9-diazaspiro[5.5]undecan-3-yl)propanamido)-3,3-dimethylbutanoyl)-4-hydroxy-N-((S)-1-(4-(4-methylthiazol-5-yl)phenyl)ethyl)pyrrolidine-2-carboxamide] | B (“B” indicates maximum degradation ≥50%) |
| < 10 | < 10 | > 75 | Cc1ncsc1-c1ccc([C@H](C)NC(=O)[C@@H]2C[C@@H](O)CN2C(=O)[C@@H](c2cc(OCCN(C)Cc3ccc(CCOc4cc(-c5ccccc5O)nnc4N)cc3)no2)C(C)C)cc1 [Compound 251, (2S,4R)-1-((R)-2-(3-(2-((4-(2-((3-amino-6-(2-hydroxyphenyl)pyridazin-4-yl)oxy)ethyl)benzyl)(methyl)amino)ethoxy)isoxazol-5-yl)-3-methylbutanoyl)-4-hydroxy-N-((S)-1-(4-(4-methylthiazol-5-yl)phenyl)ethyl)pyrrolidine-2-carboxamide] | A (“A” indicates maximum degradation ≥75%) |
| > 1000 | > 1000 | < 50 | Cc1ncsc1-c1ccc(CNC(=O)[C@@H]2C[C@@H](O)CN2C(=O)[C@@H](NC(=O)CCN2CCC3(CCN(CCC(=O)NCc4ccc(CCOc5cc(-c6ccccc6O)nnc5N)cc4)CC3)CC2)C(C)(C)C)cc1 [Compound 252, (2S,4R)-1-((S)-2-(3-(9-(3-((4-(2-((3-amino-6-(2-hydroxyphenyl)pyridazin-4-yl)oxy)ethyl)benzyl)amino)-3-oxopropyl)-3,9-diazaspiro[5.5]undecan-3-yl)propanamido)-3,3-dimethylbutanoyl)-4-hydroxy-N-(4-(4-methylthiazol-5-yl)benzyl)pyrrolidine-2-carboxamide] | C (“C” indicates maximum degradation <50%) |
| < 10 | > 1000 | < 50 | Cc1ncsc1-c1ccc([C@H](C)NC(=O)[C@@H]2C[C@@H](O)CN2C(=O)[C@@H](c2cc(OCCN3CCC(OC4CN(C(=O)c5ccc(CCOc6cc(-c7ccccc7O)nnc6N)cc5)C4)CC3)no2)C(C)C)cc1 [Compound 253, (2S,4R)-1-((R)-2-(3-(2-(4-((1-(4-(2-((3-amino-6-(2-hydroxyphenyl)pyridazin-4-yl)oxy)ethyl)benzoyl)azetidin-3-yl)oxy)piperidin-1-yl)ethoxy)isoxazol-5-yl)-3-methylbutanoyl)-4-hydroxy-N-((S)-1-(4-(4-methylthiazol-5-yl)phenyl)ethyl)pyrrolidine-2-carboxamide] | A (“A” indicates maximum degradation ≥75%) |
| > 10 | > 1000 | < 50 | Cc1ncsc1-c1ccc([C@H](C)NC(=O)[C@@H]2C[C@@H](O)CN2C(=O)[C@@H](NC(=O)CCCCCCCCCCCCCCNC(=O)c2ccc(CCOc3cc(-c4ccccc4O)nnc3N)cc2)C(C)(C)C)cc1 [Compound 254, (2S,4R)-1-((S)-2-(15-(4-(2-((3-amino-6-(2-hydroxyphenyl)pyridazin-4-yl)oxy)ethyl)benzamido)pentadecanamido)-3,3-dimethylbutanoyl)-4-hydroxy-N-((S)-1-(4-(4-methylthiazol-5-yl)phenyl)ethyl)pyrrolidine-2-carboxamide] | B (“B” indicates maximum degradation ≥50%) |
| > 10 | > 1000 | < 50 | Cc1ncsc1-c1ccc([C@H](C)NC(=O)[C@@H]2C[C@@H](O)CN2C(=O)[C@@H](NC(=O)CCCCCCCCCCCCCC(=O)NCc2ccc(CCN(C)c3cc(-c4ccccc4O)nnc3N)cc2)C(C)(C)C)cc1 [Compound 255, N1-(4-(2-((3-amino-6-(2-hydroxyphenyl)pyridazin-4-yl)(methyl)amino)ethyl)benzyl)-N15-((S)-1-((2S,4R)-4-hydroxy-2-(((S)-1-(4-(4-methylthiazol-5-yl)phenyl)ethyl)carbamoyl)pyrrolidin-1-yl)-3,3-dimethyl-1-oxobutan-2-yl)pentadecanediamide] | A (“A” indicates maximum degradation ≥75%) |
| > 1000 | > 1000 | < 50 | Cc1ncsc1-c1ccc([C@H](C)NC(=O)[C@@H]2C[C@@H](O)CN2C(=O)[C@@H](NC(=O)CCNCCCCCCCCCCC(=O)NCc2ccc(CCOc3cc(-c4ccccc4O)nnc3N)cc2)C(C)(C)C)cc1 [Compound 256, (2S,4R)-1-((S)-2-(3-((11-((4-(2-((3-amino-6-(2-hydroxyphenyl)pyridazin-4-yl)oxy)ethyl)benzyl)amino)-11-oxoundecyl)amino)propanamido)-3,3-dimethylbutanoyl)-4-hydroxy-N-((S)-1-(4-(4-methylthiazol-5-yl)phenyl)ethyl)pyrrolidine-2-carboxamide] | C (“C” indicates maximum degradation <50%) |
| > 10 | > 1000 | < 50 | Cc1ncsc1-c1ccc([C@H](C)NC(=O)[C@@H]2C[C@@H](O)CN2C(=O)[C@@H](NC(=O)CCCCCCCCC(=O)NCc2ccc(CCOc3cc(-c4ccccc4O)nnc3N)cc2)C(C)(C)C)cc1 [Compound 257, N1-(4-(2-((3-amino-6-(2-hydroxyphenyl)pyridazin-4-yl)oxy)ethyl)benzyl)-N10-((S)-1-((2S,4R)-4-hydroxy-2-(((S)-1-(4-(4-methylthiazol-5-yl)phenyl)ethyl)carbamoyl)pyrrolidin-1-yl)-3,3-dimethyl-1-oxobutan-2-yl)decanediamide] | A (“A” indicates maximum degradation ≥75%) |
| > 100 | > 1000 | > 50 | Cc1ncsc1-c1ccc([C@H](C)NC(=O)[C@@H]2C[C@@H](O)CN2C(=O)[C@@H](NC(=O)CN2CCC(OC3CCN(CCC(=O)NCc4ccc(CCOc5cc(-c6ccccc6O)nnc5N)cc4)CC3)CC2)C(C)(C)C)cc1 [Compound 258, (2S,4R)-1-((S)-2-(2-(4-((1-(3-((4-(2-((3-amino-6-(2-hydroxyphenyl)pyridazin-4-yl)oxy)ethyl)benzyl)amino)-3-oxopropyl)piperidin-4-yl)oxy)piperidin-1-yl)acetamido)-3,3-dimethylbutanoyl)-4-hydroxy-N-((S)-1-(4-(4-methylthiazol-5-yl)phenyl)ethyl)pyrrolidine-2-carboxamide] | A (“A” indicates maximum degradation ≥75%) |
| > 1000 | > 1000 | < 50 | Cc1ncsc1-c1ccc([C@H](C)NC(=O)[C@@H]2C[C@@H](O)CN2C(=O)[C@@H](NC(=O)CCN2C[C@H]3CN(CCC(=O)NCc4ccc(CCOc5cc(-c6ccccc6O)nnc5N)cc4)C[C@H]3C2)C(C)(C)C)cc1 [Compound 259, (2S,4R)-1-((2S)-2-(3-(5-(3-((4-(2-((3-amino-6-(2-hydroxyphenyl)pyridazin-4-yl)oxy)ethyl)benzyl)amino)-3-oxopropyl)hexahydropyrrolo[3,4-c]pyrrol-2(1H)-yl)propanamido)-3,3-dimethylbutanoyl)-4-hydroxy-N-((S)-1-(4-(4-methylthiazol-5-yl)phenyl)ethyl)pyrrolidine-2-carboxamide] | C (“C” indicates maximum degradation <50%) |
